For 15 molecules, EC50 results are on record in patent US10604512B2, “3-(1H-indol-2-yl)-1H-indazoles and therapeutic uses thereof” (Samumed, LLC, priority 2015, dated 2020).

Structures are written as SMILES.

What all share (assay type): cell-based
In experiment [1] the test system is Wnt activity (Sp5-Luc reporter, TCF/LEF binding sites) in SW480 colon carcinoma cells. The experiment is described as follows: Screening assay for Wnt activity: Sp5-Luc reporter gene assay in stably transduced SW480 colon carcinoma cells. The conditions noted are these: Homo sapiens, overnight incubation, 10-point curve from 10 μM. The procedure, abridged: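 SW480 cells stably transduced with a luciferase reporter driven by an Sp5 promoter of eight TCF/LEF sites were plated at 4,000 cells/well in 1% FBS medium. They were exposed overnight at 37° C to a 10-point 1:3 dilution series from 10 μM (0.1% DMSO). Luminescence was normalized to DMSO for four-parameter EC50, or percent inhibition at 10 μM.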

A further experiment deals with SW480 colon cancer cells. Put plainly: Cell viability assay (CellTiter-Blue) in SW480 colon cancer cells. Particulars: Homo sapiens, 96 h, four days, CellTiter-Blue. In short, it runs like this:
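SW480 colon cancer cells (~2×10^3/well) exposed to 8-point 1:3 dilutions from 10 μM to 0.0045 μM for four days at 37 °C/5% CO2. Viability read by resazurin (CellTiter-Blue) fluorescence after ~3 h, Ex 560/Em 590 nm. EC50 from non-linear regression; percent inhibition at 10 μM given when EC50 >10 μM.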

The subject of experiment [2] is Primary human fibroblasts derived from IPF patients (LL29 cells) treated with TGF-β1. The experiment is described as follows: Inhibition of the fibrotic process: αSMA staining in TGF-β1-treated primary human fibroblasts from IPF patients (LL29 cells). Particulars: Fibroblast, 96 h, % αSMA-positive LL29 cells, TGF-β1 20 ng/mL, 4 days. In short, it runs like this:
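LL29 IPF-patient fibroblasts in 1% FBS stimulated with TGF-β1 (20 ng/mL) and compound (10 μM–1.87 nM, 0.1% DMSO) for 4 days at 37 °C. SYTOX-positive cells excluded; % αSMA-positive cells imaged, normalized to TGF-β1/DMSO wells; EC50 by nonlinear regression, else % inhibition at 10 μM.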

The next experiment deals with IL-6. The experiment is described as follows: Inhibition of IL-6 in LPS-stimulated THP-1 human monocyte cells (HTRF). Particulars: IL-6 inhibition, LPS-stimulated THP-1 cells, HTRF. In short, it runs like this: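 THP-1 cells serum-reduced (1% FBS, 24 h), then 5000 cells/well preincubated 2 h with compound (10-point 1:3 series from 10 μM, 0.1% DMSO) before 500 ng/mL LPS for 22 h at 37 °C. Secreted IL-6 quantified by HTRF 665/620 ratio; DMSO-normalised duplicates fitted to four-parameter EC50; above 10 μM, % inhibition at 10 μM given.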

`FC1(F)CCN(Cc2cncc(-c3ccc4[nH]nc(-c5cc6c(-c7cccs7)cccc6[nH]5)c4c3)c2)C1` [Compound 362, 5-(5-((3,3-Difluoropyrrolidin-1-yl)methyl)pyridin-3-yl)-3-(4-(thiophen-2-yl)-1H-indol-2-yl)-1H-indazole]: the EC50 is 0.474 µM in experiment [1], 3.09 µM in the experiment with SW480 colon cancer cells, 0.619 µM in experiment [2] and 0.37 µM in the experiment with IL-6.

Take `CC(C)CC(=O)Nc1cncc(-c2ccc3[nH]nc(-c4cc5c(-c6cc(F)cc(NCCN(C)C)c6)cccc5[nH]4)c3c2)c1` [Compound 450, N-(5-(3-(4-(3-((2-(Dimethylamino)ethyl)amino)-5-fluorophenyl)-1H-indol-2-yl)-1H-indazol-5-yl)pyridin-3-yl)-3-methylbutanamide]: the EC50 was determined as 0.137 µM in experiment [1], 0.303 µM in the experiment with SW480 colon cancer cells, 0.191 µM in experiment [2] and 1.29 µM in the experiment with IL-6.

In the case of `Cc1ccncc1-c1ccc2[nH]nc(-c3cc4c(-c5cc(F)cc(NCCN(C)C)c5)cccc4[nH]3)c2c1` [Compound 453, N^1-(3-Fluoro-5-(2-(5-(4-methylpyridin-3-yl)-1H-indazol-3-yl)-1H-indol-4-yl)phenyl)-N^2,N^2-dimethylethane-1,2-diamine], the EC50 is 0.263 µM in experiment [1], 0.64 µM in the experiment with SW480 colon cancer cells, 1.76 µM in experiment [2] and 0.244 µM with IL-6.

For `CN(C)CCNc1cc(F)cc(-c2cccc3[nH]c(-c4n[nH]c5ccc(-c6cncc(NC(=O)Cc7ccccc7)c6)cc45)cc23)c1` [Compound 458, N-(5-(3-(4-(3-((2-(Dimethylamino)ethyl)amino)-5-fluorophenyl)-1H-indol-2-yl)-1H-indazol-5-yl)pyridin-3-yl)-2-phenylacetamide], the EC50 amounted to 0.422 µM in experiment [1], 0.767 µM in the experiment with SW480 colon cancer cells, 1.01 µM in experiment [2] and 0.354 µM in the experiment on IL-6.

On to `CN(C)CCNc1cc(F)cc(-c2cccc3[nH]c(-c4n[nH]c5ccc(-c6cncc(NC(=O)c7ccccc7)c6)cc45)cc23)c1` [Compound 459, N-(5-(3-(4-(3-((2-(Dimethylamino)ethyl)amino)-5-fluorophenyl)-1H-indol-2-yl)-1H-indazol-5-yl)pyridin-3-yl)benzamide], for which the EC50 in experiment [1] was determined as 0.067 µM; with SW480 colon cancer cells, 0.212 µM; in experiment [2], 0.077 µM; in the experiment with IL-6 it was 0.109 µM.

As for `CCCC(=O)Nc1cncc(-c2ccc3[nH]nc(-c4cc5c(-c6cc(F)cc(NCCN(C)C)c6)cccc5[nH]4)c3c2)c1` [Compound 465, N-(5-(3-(4-(3-((2-(Dimethylamino)ethyl)amino)-5-fluorophenyl)-1H-indol-2-yl)-1H-indazol-5-yl)pyridin-3-yl)butyramide], the EC50 in experiment [1] came out at 0.138 µM; in the experiment with SW480 colon cancer cells, 0.31 µM; in experiment [2] it was 0.224 µM; in the experiment with IL-6, 0.876 µM.

For `CN(C)CCNc1cc(F)cc(-c2cccc3[nH]c(-c4n[nH]c5ccc(-c6cncc(NC(=O)C7CC7)c6)cc45)cc23)c1` [Compound 468, N-(5-(3-(4-(3-((2-(Dimethylamino)ethyl)amino)-5-fluorophenyl)-1H-indol-2-yl)-1H-indazol-5-yl)pyridin-3-yl)cyclopropanecarboxamide], the EC50 in experiment [1] came out at 0.021 µM; with SW480 colon cancer cells it was 0.075 µM; in experiment [2], 0.174 µM; in the experiment with IL-6 it was 0.009 µM.

For `CN(C)CCNc1cc(F)cc(-c2cccc3[nH]c(-c4n[nH]c5ccc(-c6cncc(NC(=O)C7CCC7)c6)cc45)cc23)c1` [Compound 469, N-(5-(3-(4-(3-((2-(Dimethylamino)ethyl)amino)-5-fluorophenyl)-1H-indol-2-yl)-1H-indazol-5-yl)pyridin-3-yl)cyclobutanecarboxamide], the EC50 turned out to be 0.195 µM in experiment [1], 0.287 µM in the experiment on SW480 colon cancer cells, 0.189 µM in experiment [2] and 0.027 µM in the experiment with IL-6.

As for `CN(C)CCNc1cc(F)cc(-c2cccc3[nH]c(-c4n[nH]c5ccc(-c6cncc(NC(=O)C7CCCC7)c6)cc45)cc23)c1` [Compound 470, N-(5-(3-(4-(3-((2-(Dimethylamino)ethyl)amino)-5-fluorophenyl)-1H-indol-2-yl)-1H-indazol-5-yl)pyridin-3-yl)cyclopentanecarboxamide], the EC50 in experiment [1] was 0.04 µM; with SW480 colon cancer cells it was 0.166 µM; in experiment [2], greater than 10 µM; with IL-6 it was 0.054 µM.

Consider `CN(C)CCNc1cc(F)cc(-c2cccc3[nH]c(-c4n[nH]c5ccc(-c6cncc(NC(=O)C7CCCCC7)c6)cc45)cc23)c1` [Compound 471, N-(5-(3-(4-(3-((2-(Dimethylamino)ethyl)amino)-5-fluorophenyl)-1H-indol-2-yl)-1H-indazol-5-yl)pyridin-3-yl)cyclohexanecarboxamide], for which the EC50 in experiment [1] was determined as 0.689 µM; in the experiment with SW480 colon cancer cells, 1.38 µM; in experiment [2], 1.42 µM; with IL-6 it was 0.731 µM.

Regarding `CCC(=O)Nc1cncc(-c2ccc3[nH]nc(-c4cc5c(-c6cc(F)cc(CNS(C)(=O)=O)c6)cccc5[nH]4)c3c2)c1` [Compound 477, N-(5-(3-(4-(3-Fluoro-5-(methylsulfonamidomethyl)phenyl)-1H-indol-2-yl)-1H-indazol-5-yl)pyridin-3-yl)propionamide], the EC50 in experiment [1] worked out at 0.135 µM; with SW480 colon cancer cells, 0.817 µM; in experiment [2], 0.224 µM; in the experiment with IL-6 it was 0.595 µM.

With `CS(=O)(=O)NCc1cc(F)cc(-c2cccc3[nH]c(-c4n[nH]c5ccc(-c6cncc(N)c6)cc45)cc23)c1` [Compound 479, N-(3-(2-(5-(5-Aminopyridin-3-yl)-1H-indazol-3-yl)-1H-indol-4-yl)-5-fluorobenzyl)methanesulfonamide], the EC50 came to 0.08 µM in experiment [1], 0.677 µM in the experiment on SW480 colon cancer cells, 0.134 µM in experiment [2] and 0.169 µM in the experiment with IL-6.

For the molecule `Cc1ccncc1-c1ccc2[nH]nc(-c3cc4c(-c5cc(F)cc(CNS(C)(=O)=O)c5)cccc4[nH]3)c2c1` [Compound 481, N-(3-Fluoro-5-(2-(5-(4-methylpyridin-3-yl)-1H-indazol-3-yl)-1H-indol-4-yl)benzyl)methanesulfonamide], the EC50 came to 0.105 µM in experiment [1], 0.891 µM in the experiment on SW480 colon cancer cells, 0.156 µM in experiment [2] and 0.122 µM with IL-6.

Regarding `CS(=O)(=O)NCc1cc(F)cc(-c2cccc3[nH]c(-c4n[nH]c5ccc(-c6cncc(NC(=O)c7ccccc7)c6)cc45)cc23)c1` [Compound 487, N-(5-(3-(4-(3-Fluoro-5-(methylsulfonamidomethyl)phenyl)-1H-indol-2-yl)-1H-indazol-5-yl)pyridin-3-yl)benzamide], the EC50 in experiment [1] worked out at 0.65 µM; in the experiment with SW480 colon cancer cells, 3.18 µM; in experiment [2], 0.313 µM; with IL-6 it was 2.06 µM.

For the molecule `CN(C)Cc1cncc(-c2ccc3[nH]nc(-c4cc5c(-c6cc(F)cc(CNS(C)(=O)=O)c6)cccc5[nH]4)c3c2)c1` [Compound 489, N-(3-(2-(5-(5-((Dimethylamino)methyl)pyridin-3-yl)-1H-indazol-3-yl)-1H-indol-4-yl)-5-fluorobenzyl)methanesulfonamide], the EC50 in experiment [1] came to 0.12 µM; in the experiment on SW480 colon cancer cells, 0.568 µM; in experiment [2] it was 0.406 µM; with IL-6 it was 1.06 µM.
